Results published in publication PMC8818024 (Structure (London, England : 1993), 2021).
Entries after “also recorded” stand apart in the source; their conditions may differ.

Assays:
[1] = target: Arr1 (Bos taurus, UniProt P08168); experiment: Tyrosine fluorescence quenching assay of Arr1; assay type: binding, bovine; settings: intrinsic quenching assay, no Mg2+; Figure 6E-F, Table S1
[2] = test system: bovine arrestin-1; experiment: cwEPR of spin-labeled arrestin C-tail mutants; settings: spin-labeled Arr1 mutants, room temperature, compared with apo-Arr1; Figure 3D

Chain of Arr1 (P08168 whole entry): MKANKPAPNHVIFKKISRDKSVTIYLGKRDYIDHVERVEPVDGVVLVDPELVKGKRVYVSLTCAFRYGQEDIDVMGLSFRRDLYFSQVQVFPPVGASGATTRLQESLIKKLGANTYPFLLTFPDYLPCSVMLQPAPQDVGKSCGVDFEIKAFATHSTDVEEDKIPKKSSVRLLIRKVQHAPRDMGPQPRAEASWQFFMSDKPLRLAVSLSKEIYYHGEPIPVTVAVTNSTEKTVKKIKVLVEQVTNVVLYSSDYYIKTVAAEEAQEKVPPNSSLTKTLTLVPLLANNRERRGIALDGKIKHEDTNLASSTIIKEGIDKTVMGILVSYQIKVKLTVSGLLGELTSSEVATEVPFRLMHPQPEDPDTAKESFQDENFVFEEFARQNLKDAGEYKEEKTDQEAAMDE

**Q.** For `O=P(O)(O)O[C@@H]1[C@H](O)[C@H](O)[C@@H](OP(=O)(O)O)[C@H](OP(=O)(O)O)[C@H]1O` [InsP3, (1,4,5) myo-D-inositol triphosphate], which “relative affinity for Arr1 (in words)” value [1] is on record?
**A.** The value was “somewhat lower affinity; also recorded: lower relative affinity”.

**Q.** And the “C-tail flexibility by cwEPR (sites T396 and A401)” value [2]?
**A.** The value was “slightly more flexibility than InsP6”.
